From patent US7419969B2 (Bristol-Myers Squibb Company, priority 2004, dated 2008)

Target: T1, HIV-integrase (Human immunodeficiency virus type 1 group M subtype B, UniProt P04585)
T1 construct: Recombinant integrase (0.26 ng) was incubated with the beads
Test: in-vitro activity against HIV-integrase (HIV Integrase Inhibition, SPA bead assay)
Assay type: biochemical
Conditions: Table 1a; recombinant integrase, activity class
Summary of the method: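 Recombinant integrase (0.26 ng) pre-bound for 90 min at 37 °C to biotinylated substrate DNA on streptavidin SPA beads, then washed. Inhibitors added with 33P-labelled target DNA; reaction stopped with 10 mM EDTA. Scintillation CPM taken as integration signal.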

Q: With `O=C(NCc1ccc(F)cc1-n1ccnn1)c1nc2n(c(=O)c1O)CCOC21CCC1` [Example 101, Spiro[cyclobutane-1,9′(4′H)-pyrimido[2,1-c][1,4]oxazine]-2′-carboxamide, N-[[4-fluoro-2-(1H-1,2,3-triazol-1-yl)phenyl]methyl]-6′,7′-dihydro-3′-hydroxy-4′-oxo-] as the molecule, how does the IC50 read?
A: The IC50 was 1 to 10 nM.

Q: For `Cc1nnn(-c2cc(F)ccc2CNC(=O)c2nc3n(c(=O)c2O)CCOC32CCC2)c1C` [Example 102, Spiro[cyclobutane-1,9′(4′H)-pyrimido[2,1-c][1,4]oxazine]-2′-carboxamide, N-[[2-(4,5-dimethyl-1H-1,2,3-triazol-1-yl)-4-fluorophenyl]methyl]-6′,7′-dihydro-3′-hydroxy-4′-oxo-], which IC50 is on record?
A: Its IC50 is 10 to 100 nM.

Q: Which IC50 does the source give for `CC(C)(C)c1cn(-c2cc(F)ccc2CNC(=O)c2nc3n(c(=O)c2O)CCOC32CCC2)nn1` [Example 103, Spiro[cyclobutane-1,9′(4′H)-pyrimido[2,1-c][1,4]oxazine]-2′-carboxamide, N-[[2-[4-(1,1-dimethylethyl)-1H-1,2,3-triazol-1-yl]-4-fluorophenyl]methyl]-6′,7′-dihydro-3′-hydroxy-4′-oxo-] here?
A: The IC50 was 10 to 100 nM.

Q: `Cc1cnnn1-c1cc(F)ccc1CNC(=O)c1nc2n(c(=O)c1O)CCOC21CCC1` [Example 104, Spiro[cyclobutane-1,9′(4′H)-pyrimido[2,1-c][1,4]oxazine]-2′-carboxamide, N-[[4-fluoro-2-(5-methyl-1H-1,2,3-triazol-1-yl)phenyl]methyl]-6′,7′-dihydro-3′-hydroxy-4′-oxo-] was tested. Which IC50 did it give?
A: Its IC50 is 1 to 10 nM.

Q: `O=C(NCc1ccc(F)cc1N1CCOC1=O)c1nc2n(c(=O)c1O)CCOC21CCC1` [Example 105, Spiro[cyclobutane-1,9′(4′H)-pyrimido[2,1-c][1,4]oxazine]-2′-carboxamide, N-[[4-fluoro-2-(2-oxo-3-oxazolidinyl)phenyl]methyl]-6′,7′-dihydro-3′-hydroxy-4′-oxo-] was tested. Which IC50 did it give?
A: Its IC50 is 1 to 10 nM.

Q: Which IC50 does the source give for `O=C(NCc1ccc(F)cc1N1CCC1=O)c1nc2n(c(=O)c1O)CCOC21CCC1` [Example 106, Spiro[cyclobutane-1,9′(4′H)-pyrimido[2,1-c][1,4]oxazine]-2′-carboxamide, N-[[4-fluoro-2-(2-oxo-1-azetidinyl)phenyl]methyl]-6′,7′-dihydro-3′-hydroxy-4′-oxo-] here?
A: The IC50 was 1 to 10 nM.

Q: For `Cc1nnn(-c2cc(F)ccc2CNC(=O)c2nc3n(c(=O)c2O)CCCOC32CCC2)c1C` [Example 107, Spiro[cyclobutane-1,10′(4′H)-[6H]pyrimido[2,1-c][1,4]oxazepine]-2′-carboxamide, N-[[2-(4,5-dimethyl-1H-1,2,3-triazol-1-yl)-4-fluorophenyl]methyl]-7′,8′-dihydro-3′-hydroxy-4′-oxo-], which IC50 is on record?
A: Its IC50 is 10 to 100 nM.

Q: With `Cc1ncn(-c2cc(F)ccc2CNC(=O)c2nc3n(c(=O)c2O)CCOC32COC2)n1` [Example 108, Spiro[oxetane-3,9′(4′H)-pyrimido[2,1-c][1,4]oxazine]-2′-carboxamide, N-[[4-fluoro-2-(3-methyl-1H-1,2,4-triazol-1-yl)phenyl]methyl]-6′,7′-dihydro-3′-hydroxy-4′-oxo-] as the molecule, how does the IC50 read?
A: Its IC50 is 1 to 10 nM.

Q: Which IC50 does the source give for `O=C(NCc1ccc(F)cc1)c1nc2n(c(=O)c1O)CCOC21COC1` [Example 109, Spiro[oxetane-3,9′(4′H)-pyrimido[2,1-c][1,4]oxazine]-2′-carboxamide, N-[(4-fluorophenyl)methyl]-6′,7′-dihydro-3′-hydroxy-4′-oxo-] here?
A: Its IC50 is 1 to 10 nM.

Q: How did the IC50 turn out when `O=C(NCc1ccc(F)cc1-n1cncn1)c1nc2n(c(=O)c1O)CCOC21COC1` [Example 110, Spiro[oxetane-3,9′(4′H)-pyrimido[2,1-c][1,4]oxazine]-2′-carboxamide, N-[[4-fluoro-2-(1H-1,2,4-triazol-1-yl)phenyl]methyl]-6′,7′-dihydro-3′-hydroxy-4′-oxo-] was run?
A: Its IC50 is 1 to 10 nM.

Q: For `CS(=O)(=O)c1cc(F)ccc1CNC(=O)c1nc2n(c(=O)c1O)CCOC21COC1` [Example 111, Spiro[oxetane-3,9′(4′H)-pyrimido[2,1-c][1,4]oxazine]-2′-carboxamide, N-[[4-fluoro-2-(methylsulfonyl)phenyl]methyl]-6′,7′-dihydro-3′-hydroxy-4′-oxo-], which IC50 is on record?
A: Its IC50 is 10 to 100 nM.

Q: How did the IC50 turn out when `O=C(NCc1ccc(F)cc1-n1ccnn1)c1nc2n(c(=O)c1O)CCOC21CCOCC1` [Example 112, Spiro[4H-pyran-4,9′(4′H)-pyrimido[2,1-c][1,4]oxazine]-2′-carboxamide, N-[[4-fluoro-2-(1H-1,2,3-triazol-1-yl)phenyl]methyl]-2,3,5,6,6′,7′-hexahydro-3′-hydroxy-4′-oxo-] was run?
A: The IC50 was 1 to 10 nM.

Q: With `O=C(NCc1ccc(F)cc1-n1ccnn1)c1nc2n(c(=O)c1O)CCOC21CCCC1` [Example 113, Spiro[cyclopentane-1,9′(4′H)-pyrimido[2,1-c][1,4]oxazine]-2′-carboxamide, N-[[4-fluoro-2-(1H-1,2,3-triazol-1-yl)phenyl]methyl]-6′,7′-dihydro-3′-hydroxy-4′-oxo-] as the molecule, how does the IC50 read?
A: The IC50 was 1 to 10 nM.

Q: Which IC50 does the source give for `O=C(NCc1ccc(F)cc1)c1nc2n(c(=O)c1O)CCCOC21CCOCC1` [Example 114, Spiro[4H-pyran-4,10′(4′H)-[6H]pyrimido[2,1-c][1,4]oxazepine]-2′-carboxamide, N-[(4-fluorophenyl)methyl]-2,3,5,6,7′,8′-hexahydro-3′-hydroxy-4′-oxo-] here?
A: The IC50 was 1 to 10 nM.

Q: Which IC50 does the source give for `Cc1ncn(-c2cc(F)ccc2CNC(=O)c2nc3n(c(=O)c2O)CCCOC32CCC2)n1` [Example 123, Spiro[cyclobutane-1,10′(4′H)-[6H]pyrimido[2,1-c][1,4]oxazepine]-2′-carboxamide, N-[[4-fluoro-2-(3-methyl-1H-1,2,4-triazol-1-yl)phenyl]methyl]-7′,8′-dihydro-3′-hydroxy-4′-oxo-] here?
A: Its IC50 is 1 to 10 nM.

Q: `Cc1ncn(-c2cc(F)ccc2CNC(=O)c2nc3n(c(=O)c2O)CCOC32CCC2)n1` [Example 124, Spiro[cyclobutane-1,9′(4′H)-pyrimido[2,1-c][1,4]oxazine]-2′-carboxamide, N-[[4-fluoro-2-(3-methyl-1H-1,2,4-triazol-1-yl)phenyl]methyl]-6′,7′-dihydro-3′-hydroxy-4′-oxo-] was tested. Which IC50 did it give?
A: The IC50 was 1 to 10 nM.

Q: For `O=C(NCc1ccccc1N1CCC1=O)c1nc2n(c(=O)c1O)CCOC21CCC1` [Example 125, Spiro[cyclobutane-1,9′(4′H)-pyrimido[2,1-c][1,4]oxazine]-2′-carboxamide, 6′,7′-dihydro-3′-hydroxy-4′-oxo-N-[[2-(2-oxo-1-azetidinyl)phenyl]methyl]-], which IC50 is on record?
A: The IC50 was 1 to 10 nM.

Q: `O=C(NCc1ccccc1N1CCOC1=O)c1nc2n(c(=O)c1O)CCOC21CCC1` [Example 126, Spiro[cyclobutane-1,9′(4′H)-pyrimido[2,1-c][1,4]oxazine]-2′-carboxamide, 6′,7′-dihydro-3′-hydroxy-4′-oxo-N-[[2-(2-oxo-3-oxazolidinyl)phenyl]methyl]-] was tested. Which IC50 did it give?
A: The IC50 was 1 to 10 nM.

Q: Which IC50 does the source give for `Cc1nc(C)n(-c2cc(F)ccc2CNC(=O)c2nc3n(c(=O)c2O)CCOC32CCC2)n1` [Example 127, Spiro[cyclobutane-1,9′(4′H)-pyrimido[2,1-c][1,4]oxazine]-2′-carboxamide, N-[[2-(3,5-dimethyl-1H-1,2,4-triazol-1-yl)-4-fluorophenyl]methyl]-6′,7′-dihydro-3′-hydroxy-4′-oxo-] here?
A: Its IC50 is 10 to 100 nM.

Q: Which IC50 does the source give for `Cc1nc(C)n(-c2cc(F)ccc2CNC(=O)c2nc3n(c(=O)c2O)CCCOC32CCC2)n1` [Example 128, Spiro[cyclobutane-1,10′(4′H)-[6H]pyrimido[2,1-c][1,4]oxazepine]-2′-carboxamide, N-[[2-(3,5-dimethyl-1H-1,2,4-triazol-1-yl)-4-fluorophenyl]methyl]-7′,8′-dihydro-3′-hydroxy-4′-oxo-] here?
A: Its IC50 is 10 to 100 nM.
